≈ marks a conversion by molar mass, not a printed value. Read-outs that look alike come from different tables or passages of the source.
Experiments:
[1] = system: Mycobacterium tuberculosis strain RC1; assay: MIC by agar dilution, M. tuberculosis strain RC1; assay type: cell-based; details: for MIC: Mycobacterium tuberculosis, RC1; for effect of LIV addition on toxicity, strain RC1: strain RC1, LIV added
[2] = system: E. coli ketol-acid reductoisomerase; details: cited from earlier work
[3] = system: yeast isopropylmalate isomerase; details: cited from earlier work; for inhibition of yeast isopropylmalate isomerase, 19 vs 21: fully ionized, nitronate forms
yeast = details: minimal media; cited from earlier work
[4] = cited from earlier work; for decomposition (retro-aldol): in the presence of divalent metals, unpublished observation
plants = details: leucine alone; cited from earlier work
[5] = system: Mycobacterium tuberculosis; details: cited from earlier work; for change in final colony forming units vs starting: Klemens et al., 1994
[6] = system: Mycobacterium tuberculosis; details: Heifets L. B. (1994); cited from earlier work
E. coli = details: minimal media; cited from earlier work
[7] = system: ketol-acid reductoisomerase; details: cited from earlier work
K. pneumoniae = details: cited from earlier work
carrot cells = details: branched chain amino acids; cited from earlier work
[8] = system: ketol-acid reductoisomerase from carrot (plant); details: cited from earlier work
[9] = system: ketol-acid reductoisomerase from Klebsiella pneumoniae; details: cited from earlier work
[10] = system: E. coli ketol-acid reductoisomerase; details: presence of Mg2+ and NADPH; read-out: overall dissociation constant; cited from earlier work
[11] = system: Mycobacterium tuberculosis strain ATCC35801; assay: MIC by agar dilution, M. tuberculosis strain ATCC35801; assay type: cell-based; details: for MIC: Mycobacterium tuberculosis, ATCC35801; for effect of LIV addition on toxicity, strain ATCC35801: strain ATCC35801, LIV added
[12] = system: acetolactate synthase from E. coli; details: 1 mM; cited from earlier work
[13] = system: dihydroxy acid dehydratase from E. coli; details: 1 mM; cited from earlier work
[14] = assay type: in vivo, CD-1 female mice; details: 500 mg/kg body weight subcutaneous each day for 30 days
Method: To determine if high doses of sulfometuron methyl would be toxic to mice, a 20 mg/ml solution of this compound was prepared in phosphate buffered saline and 0.5 ml of this was injected subcutaneously into 4 day-old CD-1 female mice each day for 30 days. This dose corresponded to 500 mg sulfometuron methyl/kg body weight of the mouse. After the 30-day course of treatment the mice were sacrificed and the internal organs were examined by a veterinarian trained in laboratory animal care. The organs were compared to a control group that received injections of phosphate buffered saline.

[15] = system: Mycobacterium tuberculosis strain ATCC35801; assay: Tuberculosis mouse model study, colony forming units in lungs and spleens; assay type: in vivo, mice
[16] = leucine, isoleucine, and valine added (+LIV), read-out: MIC +LIV, strain RC1
[17] = no branched chain amino acids (-LIV), read-out: MIC -LIV, strain RC1
[18] = leucine, isoleucine, and valine added (+LIV)
[19] = no branched chain amino acids (-LIV)

SMILES: COc1nc(C)nc(NC(=O)NS(=O)(=O)c2ccccc2Cl)n1 [Chlorsulfuron]
- MIC [1, 16]: > 35 µg/mL
- MIC [1, 17]: 4.4 µg/mL (≈ 12.3 µM)
- effect of LIV addition on toxicity, strain RC1 [1]: completely reversed the effects

SMILES: O=C(O)C(=O)N(O)Cc1ccccc1 [Compound 13]
- association rate for the inhibitor, benzyl (13) vs hydrogen (9) on nitrogen ([2]; relative to 9): increased the association rate for the inhibitor modestly

SMILES: CCCCCCCCCCCCN(O)C(=O)C(=O)O [Compound 14]
- potency relative to 13 ([2]; 12-carbon chain on nitrogen, Aulabaugh & Schloss, unpublished): comparable in potency to 13

SMILES: CC(C)C(C(O)C(=O)O)[N+](=O)[O-] (centres unmarked) [Compound 19]
- inhibition of yeast isopropylmalate isomerase [3]: potent inhibitors
- inhibition of yeast isopropylmalate isomerase, 19 vs 21 [3]: comparable
- growth of yeast (yeast): no affect
- decomposition (retro-aldol) [4]: rapid rate

SMILES: CC(C)C(O)(C[N+](=O)[O-])C(=O)O (centres unmarked) [Compound 20]
- inhibition of yeast isopropylmalate isomerase [3]: potent inhibitors
- growth of yeast (yeast): no affect
- decomposition (retro-aldol) [4]: rapid rate

SMILES: O=C(O)C1(O)CCCC1[N+](=O)[O-] (centres unmarked) [Compound 21]
- reversal of herbicidal activity (plants): reversed by leucine alone
- inhibition of yeast isopropylmalate isomerase, 19 vs 21 [3]: comparable
- inhibition of isopropylmalate isomerase, 21 vs 19 ([3]; physiological conditions (pH 7)): much more potent inhibitor than 19
- stability of the molecule ([4]; cyclopentane ring of 21): insures stability of the molecule

SMILES: CC[C@@H](CO)NCCN[C@@H](CC)CO [Ethambutol]
- change in final colony forming units vs starting [5]: did not cause a decrease
- MIC of first-line anti-tuberculosis drugs [6]: 2 µg/mL

SMILES: CP(C)(=O)C(O)C(=O)O (centres unmarked) [Hoe 704, 2-dimethylphosphinoyl-2-hydroxy acetic acid]
- growth inhibition of E. coli (E. coli): does not inhibit the growth
- inhibition of ketol-acid reductoisomerase [7]: potent inhibitors
- MIC [1, 17]: > 37 µg/mL
- reversal of growth inhibitory effect on K. pneumoniae (K. pneumoniae; branched chain amino acids and pantoate): requires both branched chain amino acids and pantoate
- growth of K. pneumoniae (K. pneumoniae): does inhibit the growth
- reversal of effect on carrot cells in culture (carrot cells): can be reversed by branched chain amino acids alone
- inhibition of E. coli ketol-acid reductoisomerase ([2]; Hoe 704): potent and selective inhibitor
- inhibition of carrot ketol-acid reductoisomerase [8]: potent and selective inhibitor
- inhibition of Klebsiella pneumoniae ketol-acid reductoisomerase [9]: potent and selective inhibitor

SMILES: CC(C)N(O)C(=O)C(=O)O [IpOHA, N-Isopropyloxayl hydroxamate]
- Kd [10]: 0.02 nM
- inhibition of ketol-acid reductoisomerase [7]: potent inhibitors
- MIC [1, 16]: 9.2 µg/mL (≈ 62.5 µM)
- MIC [1, 17]: 9.2 µg/mL (≈ 62.5 µM)
- effect of LIV addition on toxicity, strain RC1 [1]: did not reverse the toxic effects
- MIC [11, 18]: > 18 µg/mL
- MIC [11, 19]: 18 µg/mL (≈ 122 µM)
- effect of LIV addition on toxicity, strain ATCC35801 [11]: decreased the toxicity
- effect on acetolactate synthase [12]: no effect
- effect on dihydroxy acid dehydratase [13]: no effect

SMILES: NNC(=O)c1ccncc1 [Isoniazid]
- Mycobacterium tuberculosis in spleens and lungs of mice ([5]; 25 mg/kg (Lalande et al., 1993)): significantly reduced
- change in final colony forming units vs starting [5]: caused a decrease
- MIC of first-line anti-tuberculosis drugs [6]: 0.2 µg/mL

SMILES: NC(=O)c1cnccn1 [Pyrazinamide]
- change in final colony forming units vs starting [5]: did not cause a decrease
- MIC of first-line anti-tuberculosis drugs [6]: 16 µg/mL

SMILES: CO[C@H]1/C=C/O[C@@]2(C)Oc3c(C)c(O)c4c(O)c(c(/C=N/N5CCN(C)CC5)c(O)c4c3C2=O)NC(=O)/C(C)=C\C=C\[C@H](C)[C@H](O)[C@@H](C)[C@@H](O)[C@@H](C)[C@H](OC(C)=O)[C@@H]1C [Rifampicin]
- change in final colony forming units vs starting [5]: caused a decrease
- MIC of first-line anti-tuberculosis drugs [6]: 0.5 µg/mL

SMILES: COC(=O)c1ccccc1S(=O)(=O)NC(=O)Nc1nc(C)cc(C)n1 [SM, sulfometuron methyl]
- MIC [1, 16]: 1.8 µg/mL (≈ 4.94 µM)
- MIC [1, 17]: 0.3 µg/mL (≈ 0.823 µM)
- MIC ([1]; read-out: minimum inhibitory concentration, medium supplemented with bovine serum albumin): 4.4 µg/mL (≈ 12.1 µM)
- MIC ([1]; read-out: minimum inhibitory concentration, medium supplemented with sodium oleate and bovine serum albumin): 2.2 µg/mL (≈ 6.04 µM)
- effect of LIV addition on toxicity, strain RC1 [1]: partially reduced the toxicity
- effect of isoleucine and valine addition on inhibition ([1]; strain RC1, isoleucine and valine added): did not prevent inhibition
- MIC [11, 18]: > 3.6 µg/mL
- MIC [11, 19]: 3.6 µg/mL (≈ 9.88 µM)
- effect of LIV addition on toxicity, strain ATCC35801 [11]: prevented the toxicity
- behavior of the mice and condition of the internal organs vs PBS [14]: No significant differences
- Mann-Whitney U test, 2-tailed P, lungs ([15]; 20 mg/kg and 100 mg SM/kg): 0.31
- Mann-Whitney U test, 2-tailed P, lungs ([15]; 20 mg/kg and 500 mg SM/kg): 0.002
- Mann-Whitney U test, 2-tailed P, lungs ([15]; 100 mg/kg and 500 mg SM/kg): 0.009
- mice with more than 200 colony forming units in the lungs ([15]; 500 mg sulfometuron methyl/kg, lungs, 31 days): none
- mice with more than 10^3 colony forming units/spleen, 500 mg/kg ([15]; 500 mg sulfometuron methyl/kg, spleen): 13%
- growth of Mycobacterium tuberculosis in the lungs ([15]; 500 mg/kg body weight): significantly reduced growth
- Mann-Whitney U test, 2-tailed P, lungs ([15]; PBS and 20 mg SM/kg): 0.39
- Mann-Whitney U test, 2-tailed P, lungs ([15]; PBS and 100 mg SM/kg): 0.65
- Mann-Whitney U test, 2-tailed P, lungs ([15]; PBS and 500 mg SM/kg): 0.03
- growth of Mycobacterium tuberculosis in a mouse model system ([15]; mouse, in vivo): inhibites growth
- Kruskal-Wallis test, P, spleen ([15]; overall difference between four groups, spleen, P < 0.05 considered significant): > 0.05
- mice with more than 10^3 colony forming units in the lungs ([15]; pooled groups PBS, 20 mg/kg and 100 mg/kg SM, lungs, 31 days): 65%
- mice with over 10^3 colony forming units/spleen, pooled groups ([15]; pooled groups PBS, 20 mg/kg and 100 mg/kg SM, spleen): 52%

SMILES: [H]/N=C(/N)N[C@H]1[C@H](O)[C@@H](O)[C@H](O[C@@H]2O[C@@H](C)[C@](O)(C=O)[C@H]2O[C@@H]2O[C@@H](CO)[C@H](O)[C@@H](O)[C@@H]2NC)[C@@H](N/C(N)=N\[H])[C@@H]1O [Streptomycin]
- MIC of first-line anti-tuberculosis drugs [6]: 3 µg/mL

From patent US5998420A, “Method for treating Mycobacterium tuberculosis” (priority 1996, dated 1999)
